Experimental findings from US12209102B2, “Heterocyclic compounds and uses thereof” (Kumquat Biosciences Inc., priority 2022, dated 2025) are described below.

The term IC50 denotes the concentration that gives 50% inhibition.

One assay addresses T1, K-Ras G12D (Homo sapiens, UniProt P01116, G12D).
T1 construct: made in house; host or cells: E. coli BL21 (DE3)
The assay can be described thus: HTRF resonance energy transfer assay, K-Ras G12D / SOS1 interaction. The following applies: HTRF assay of Example 5; read-out: IC50 against K-Ras G12D. It counts as biochemical. The essentials:
(§1)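 Read-out: HTRF 665/620 nm ratio (excitation 337 nm) after roughly 10 min or longer incubation, used to derive IC50. Donor anti-GST-Eu on GST-K-Ras; acceptor anti-6His-XL665 on His-hSOS1. Duplicate dose series from 10 μM down to 0.01 μM.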
On the technique in general: In TR-FRET formats the signal depends on donor and acceptor labels being close together.

The next assay addresses T2, K-Ras G12S (Homo sapiens, UniProt P01116, G12S).
T2 construct: made in house; host or cells: E. coli BL21 (DE3)
The assay can be described thus: HTRF resonance energy transfer assay, K-Ras G12S / SOS1 interaction. It counts as biochemical. The note with it: HTRF assay of Example 5; read-out: IC50 against K-Ras G12S. The essentials:
as §1

A further assay addresses T3, K-Ras G12V (Homo sapiens, UniProt P01116, G12V).
T3 construct: made in house; host or cells: E. coli BL21 (DE3)
Nature of the assay: HTRF resonance energy transfer assay, K-Ras G12V / SOS1 interaction. It counts as biochemical. The note with it: HTRF assay of Example 5; read-out: IC50 against K-Ras G12V. The method in brief: as §1

The next assay concerns the target T4, K-Ras WT (Homo sapiens, UniProt P01116).
T4 construct: made in house; host or cells: E. coli BL21 (DE3)
Nature of the assay: HTRF resonance energy transfer assay, K-Ras WT / SOS1 interaction. The format is biochemical. The following applies: HTRF assay of Example 5; read-out: IC50 against K-Ras WT. The method in brief: as §1

Another assay deals with SW620 cells. The assay can be described thus: Ras cellular assay, growth of cells with K-Ras G12V mutation (CellTiter-Glo). The format is cell-based. The note with it: Homo sapiens, SW-620; cell growth, Example 9, G12V mutation; read-out: IC50 against SW620 cells. On the procedure:
For example, this assay can be also used to assess a selective growth inhibition of a mutant Ras protein relative to a wildtype, or relative to a different mutant Ras protein.
SW620 (ATCC CCL-227) and Capan-1 (ATCC HTB-79) cell lines comprise a G12V mutation and can be used to assess Ras cellular signaling in vitro, e.g., in response to the compounds herein. SW620 culture medium is prepared with RPMI-1640 and 10% heat-inactivated FBS. Capan-1 culture medium is prepared with RPMI-1640 and 10% heat-inactivated FBS. A CellTiter-Glo (CTG) luminescent based assay (Promega) is used to assess growth of the cells, as a measurement of the ability of the compounds herein to inhibit Ras signaling in the cells. The cells (e.g., 800 per well) are seeded in their respective culture medium in standard tissue culture-treated 384-well format plates (Falcon #08-772-116) or ultra-low attachment surface 384-well format plates (S-Bio #MS-9384WZ). The day after plating, cells are treated with a dilution series (e.g., a 10 point 3-fold dilution series) of the compounds herein (e.g., approximately 40 μL final volume per well). Cell viability can be monitored (e.g., approximately 6 days later) according to the manufacturer's recommended instructions, where the CellTiter-Glo reagent is added (e.g., approximately 10 μL), vigorously mixed, covered, and placed on a plate shaker (e.g., approximately for 20 min) to ensure sufficient cell lysis prior to assessment of luminescent signal. The IC50 values are determined using the four parameter fit. The resulting IC50 value is a measurement of the ability of the compounds herein to reduce cell growth of Ras-driven cells (e.g., tumor cell lines) in vitro and/or in vivo.

T1 sequence (P01116 1-188 isoform P01116-2 G12D): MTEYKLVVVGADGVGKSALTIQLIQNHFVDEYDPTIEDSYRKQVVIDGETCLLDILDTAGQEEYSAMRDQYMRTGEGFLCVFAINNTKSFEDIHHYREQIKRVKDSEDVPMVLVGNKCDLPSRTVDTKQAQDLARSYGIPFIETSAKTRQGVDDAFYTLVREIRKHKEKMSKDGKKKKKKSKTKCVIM
T2 sequence (P01116 1-188 isoform P01116-2 G12S): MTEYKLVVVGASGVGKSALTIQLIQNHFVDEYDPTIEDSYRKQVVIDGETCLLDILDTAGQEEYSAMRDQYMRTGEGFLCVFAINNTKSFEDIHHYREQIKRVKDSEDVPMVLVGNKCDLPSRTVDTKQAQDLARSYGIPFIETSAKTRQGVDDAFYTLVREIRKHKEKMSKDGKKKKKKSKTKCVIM
T3 sequence (P01116 1-188 isoform P01116-2 G12V): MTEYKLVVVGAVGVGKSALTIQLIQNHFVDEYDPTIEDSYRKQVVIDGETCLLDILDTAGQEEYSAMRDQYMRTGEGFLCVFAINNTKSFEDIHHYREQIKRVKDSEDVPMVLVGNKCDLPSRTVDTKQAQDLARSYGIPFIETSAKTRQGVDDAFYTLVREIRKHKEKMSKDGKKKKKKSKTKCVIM
T4 sequence (P01116 1-188 isoform P01116-2): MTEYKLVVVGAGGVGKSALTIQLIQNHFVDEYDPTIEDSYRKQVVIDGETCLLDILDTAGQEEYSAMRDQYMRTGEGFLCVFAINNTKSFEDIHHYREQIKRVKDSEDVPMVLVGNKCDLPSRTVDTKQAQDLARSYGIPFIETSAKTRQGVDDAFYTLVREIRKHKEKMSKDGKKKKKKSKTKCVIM

For `CC1COc2c(Cl)c(-c3ccc(F)c4sc(N)c(C#N)c34)c(F)c3nc(OC[C@@]45CCCN4C[C@H](F)C5)nc(c23)N1CC(F)F` (single isomer, unassigned) [Compound 616], the IC50 was less than 0.1 µM on K-Ras G12D; less than 0.1 µM at K-Ras G12S; less than 0.1 µM at K-Ras G12V; less than 0.1 µM on K-Ras WT; less than 5 µM in the assay on SW620 cells.
In the case of `N#Cc1c(N)sc2c(F)ccc(-c3c(Cl)c4c5c(nc(OC[C@@]67CCCN6C[C@H](F)C7)nc5c3F)N(CC(F)F)[C@@H](C=C(F)F)CO4)c12` (single isomer, unassigned) [Compound 751], the IC50 at K-Ras G12D is less than 0.1 µM; on K-Ras G12S, less than 0.1 µM; on K-Ras G12V, less than 0.1 µM; on K-Ras WT, less than 0.1 µM; with SW620 cells, less than 5 µM.
In the case of `CN(C)C(=O)C1CC(N2CCOc3c(Cl)c(-c4ccc(F)c5sc(N)c(C#N)c45)c(F)c4nc(OC[C@@]56CCCN5C[C@H](F)C6)nc2c34)C1` (single isomer, unassigned) [Compound 754], the IC50 at K-Ras G12D was less than 0.1 µM; at K-Ras G12S it was less than 0.1 µM; at K-Ras G12V, less than 0.1 µM; at K-Ras WT, less than 0.1 µM; with SW620 cells, less than 5 µM.
As for `N#Cc1c(N)sc2c(F)ccc(-c3c(Cl)c4c5c(nc(OC[C@@]67CCCN6C[C@H](F)C7)nc5c3F)N(CC3CC3C#N)[C@@H](C3(O)CC3)CO4)c12` (single isomer, unassigned) [Compound 821], the half-maximal inhibitory concentration (IC50) was less than 0.1 µM on K-Ras G12D; less than 0.1 µM on K-Ras G12S; less than 0.1 µM at K-Ras G12V; less than 0.1 µM on K-Ras WT; less than 5 µM with SW620 cells.
Turning to `CC[C@H]1COc2c(Cl)c(-c3ccc(F)c4sc(N)c(C#N)c34)c(F)c3nc(OC[C@@]45CCCN4C[C@H](F)C5)nc(c23)N1CC(F)F` [Compound 619, 2-amino-4-((5S)-8-chloro-4-(2,2-difluoroethyl)-5-ethyl-10-fluoro-2-(((2R,7aS)-2-fluorotetrahydro-1H-pyrrolizin-7a(5H)-yl)methoxy)-5,6-dihydro-4H-[1,4]oxazepino[5,6,7-de]quinazolin-9-yl)-7-fluorobenzo[b]thiophene-3-carbonitrile], the IC50 on K-Ras G12D is less than 0.1 µM; at K-Ras G12S, less than 0.1 µM; on K-Ras G12V it was less than 0.1 µM; at K-Ras WT, less than 0.1 µM; in the assay with SW620 cells, less than 5 µM.
Consider `COC(C)[C@H]1COc2c(Cl)c(-c3ccc(F)c4sc(N)c(C#N)c34)c(F)c3nc(OC[C@@]45CCCN4C[C@H](F)C5)nc(c23)N1CC(F)F` (stereo partly drawn) [Compound 630, 2-amino-4-((5R)-8-chloro-4-(2,2-difluoroethyl)-10-fluoro-2-(((2R,7aS)-2-fluorotetrahydro-1H-pyrrolizin-7a(5H)-yl)methoxy)-5-(1-methoxyethyl)-5,6-dihydro-4H-[1,4]oxazepino[5,6,7-de]quinazolin-9-yl)-7-fluorobenzo[b]thiophene-3-carbonitrile], for which the IC50 is less than 0.1 µM on K-Ras G12D; less than 0.1 µM at K-Ras G12S; less than 0.1 µM at K-Ras G12V; less than 0.1 µM at K-Ras WT; less than 5 µM in the assay with SW620 cells.
On to `CC(O)C1COc2c(Cl)c(-c3ccc(F)c4sc(N)c(C#N)c34)c(F)c3nc(OC[C@@]45CCCN4C[C@H](F)C5)nc(c23)N1CC1CCNC1` (stereo partly drawn) [Compound 632, 2-amino-4-(8-chloro-10-fluoro-2-(((2R,7aS)-2-fluorotetrahydro-1H-pyrrolizin-7a(5H)-yl)methoxy)-5-(1-hydroxyethyl)-4-(pyrrolidin-3-ylmethyl)-5,6-dihydro-4H-[1,4]oxazepino[5,6,7-de]quinazolin-9-yl)-7-fluorobenzo[b]thiophene-3-carbonitrile], for which the concentration for half-maximal inhibition (IC50) at K-Ras G12D was less than 0.1 µM; at K-Ras G12S it was less than 0.1 µM; at K-Ras G12V it was less than 0.1 µM; on K-Ras WT, less than 0.1 µM; in the assay on SW620 cells, less than 5 µM.
Take `CN(C)C1CCC(N2CCOc3c(Cl)c(-c4ccc(F)c5sc(N)c(C#N)c45)c(F)c4nc(OC[C@@]56CCCN5C[C@H](F)C6)nc2c34)C1` (stereo partly drawn) [Compound 677, 2-amino-4-(8-chloro-4-(3-(dimethylamino)cyclopentyl)-10-fluoro-2-(((2R,7aS)-2-fluorotetrahydro-1H-pyrrolizin-7a(5H)-yl)methoxy)-5,6-dihydro-4H-[1,4]oxazepino[5,6,7-de]quinazolin-9-yl)-7-fluorobenzo[b]thiophene-3-carbonitrile]: the IC50 at K-Ras G12D was less than 0.1 µM; at K-Ras G12S it was less than 0.1 µM; at K-Ras G12V it was less than 0.1 µM; at K-Ras WT it was less than 0.1 µM; with SW620 cells it was less than 5 µM.
For `CN(CCCN1c2nc(OC[C@@]34CCCN3C[C@H](F)C4)nc3c(F)c(-c4ccc(F)c5sc(N)c(C#N)c45)c(Cl)c(c23)OCC1CC#N)C(=O)[C@H]1CN1` (stereo partly drawn) [Compound 709, (2R)—N-(3-(9-(2-amino-3-cyano-7-fluorobenzo[b]thiophen-4-yl)-8-chloro-5-(cyanomethyl)-10-fluoro-2-(((2R,7aS)-2-fluorotetrahydro-1H-pyrrolizin-7a(5H)-yl)methoxy)-5,6-dihydro-4H-[1,4]oxazepino[5,6,7-de]quinazolin-4-yl)propyl)-N-methylaziridine-2-carboxamide], the IC50 at K-Ras G12D was less than 0.1 µM; on K-Ras G12S it was less than 0.1 µM; at K-Ras G12V it was less than 0.1 µM; on K-Ras WT, less than 0.1 µM; in the assay with SW620 cells, less than 5 µM.
On to `CC(C)[C@H](N)C(=O)N1CCC(N2C[C@H](C)Oc3c(Cl)c(-c4ccc(F)c5sc(N)c(C#N)c45)c(F)c4nc(OC[C@@]56CCCN5C[C@H](F)C6)nc2c34)C1` (stereo partly drawn) [Compound 714, 4-((6S)-4-(1-(L-valyl)pyrrolidin-3-yl)-8-chloro-10-fluoro-2-(((2R,7aS)-2-fluorotetrahydro-1H-pyrrolizin-7a(5H)-yl)methoxy)-6-methyl-5,6-dihydro-4H-[1,4]oxazepino[5,6,7-de]quinazolin-9-yl)-2-amino-7-fluorobenzo[b]thiophene-3-carbonitrile], for which the concentration for half-maximal inhibition (IC50) was less than 0.1 µM at K-Ras G12D; less than 0.1 µM at K-Ras G12S; less than 0.1 µM at K-Ras G12V; less than 0.1 µM at K-Ras WT; less than 5 µM in the assay with SW620 cells.
Turning to `N#Cc1c(N)sc2c(F)ccc(-c3c(Cl)c4c5c(nc(OC[C@@]67CCCN6C[C@H](F)C7)nc5c3F)N(Cc3ccnn3CC(F)F)CCO4)c12` [Compound 720, 2-amino-4-(8-chloro-4-((1-(2,2-difluoroethyl)-1H-pyrazol-5-yl)methyl)-10-fluoro-2-(((2R,7aS)-2-fluorotetrahydro-1H-pyrrolizin-7a(5H)-yl)methoxy)-5,6-dihydro-4H-[1,4]oxazepino[5,6,7-de]quinazolin-9-yl)-7-fluorobenzo[b]thiophene-3-carbonitrile], the IC50 on K-Ras G12D is less than 0.1 µM; at K-Ras G12S, less than 0.1 µM; on K-Ras G12V, less than 0.1 µM; on K-Ras WT, less than 0.1 µM; in the assay with SW620 cells, less than 5 µM.
On to `C[C@H]1COc2c(Cl)c(-c3ccc(F)c4sc(N)c(C#N)c34)c(F)c3nc(OC[C@@]45CCCN4C[C@H](F)C5)nc(c23)N1C1CCOC1` (stereo partly drawn) [Compound 750, 2-amino-4-((5S)-8-chloro-10-fluoro-2-(((2R,7aS)-2-fluorotetrahydro-1H-pyrrolizin-7a(5H)-yl)methoxy)-5-methyl-4-(tetrahydrofuran-3-yl)-5,6-dihydro-4H-[1,4]oxazepino[5,6,7-de]quinazolin-9-yl)-7-fluorobenzo[b]thiophene-3-carbonitrile], for which the IC50 on K-Ras G12D was less than 0.1 µM; at K-Ras G12S, less than 0.1 µM; at K-Ras G12V it was less than 0.1 µM; on K-Ras WT, less than 0.1 µM; in the assay with SW620 cells, less than 5 µM.
For the molecule `CC(O)C1COc2c(Cl)c(-c3ccc(F)c4sc(N)c(C#N)c34)c(F)c3nc(OC[C@@]45CCCN4C[C@H](F)C5)nc(c23)N1CC1CCCNC1` (stereo partly drawn) [Compound 764, 2-amino-4-(8-chloro-10-fluoro-2-(((2R,7aS)-2-fluorotetrahydro-1H-pyrrolizin-7a(5H)-yl)methoxy)-5-(1-hydroxyethyl)-4-(piperidin-3-ylmethyl)-5,6-dihydro-4H-[1,4]oxazepino[5,6,7-de]quinazolin-9-yl)-7-fluorobenzo[b]thiophene-3-carbonitrile], the IC50 is less than 0.1 µM on K-Ras G12D; less than 0.1 µM at K-Ras G12S; less than 0.1 µM on K-Ras G12V; less than 0.1 µM on K-Ras WT; less than 5 µM in the assay on SW620 cells.
